Results: article PMC6120666 (The EMBO Journal, 2018)

Experiments:
Assay in all cases: Drug affinity chromatography with c-ponatinib and LC-MS/MS (ponatinib interactome)
Assay type in all cases: binding
[1] = target: T1, proteins of U2OS cell lysate (Homo sapiens, UniProt P62316); conditions: captured protein SNRPD2, Rank 185
T1 construct: Proteins enriched by c-ponatinib from U2OS cell lysate; endogenous in cells; host or cells: U2OS cell lysate
Outline: (§1)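 Proteins were identified by nano-UPLC–MS/MS after elution with formic acid and trypsin digestion. They were captured from U2OS lysate (2 mg protein per pulldown, NP-40 buffer) on amine-coupled NHS beads during a 2 h incubation at 4 °C.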

[2] = target: T2, proteins of U2OS cell lysate (Homo sapiens, UniProt Q9Y5L0); conditions: TNPO3, Transportin-3
T2 construct: Proteins enriched by c-ponatinib from U2OS cell lysate; endogenous in cells; host or cells: U2OS cell lysate
Outline: as §1

[3] = target: T3, proteins of U2OS cell lysate (Homo sapiens, UniProt P11441); conditions: UBL4A, Ubiquitin-like protein 4A
T3 construct: Proteins enriched by c-ponatinib from U2OS cell lysate; endogenous in cells; host or cells: U2OS cell lysate
Outline: as §1

[4] = target: T4, proteins of U2OS cell lysate (Homo sapiens, UniProt O95819); conditions: MAP4K4, Mitogen-activated protein kinase kinase kinase kinase 4
T4 construct: Proteins enriched by c-ponatinib from U2OS cell lysate; endogenous in cells; host or cells: U2OS cell lysate
Outline: as §1

[5] = target: T5, proteins of U2OS cell lysate (Homo sapiens, UniProt P51149); conditions: RAB7A, Ras-related protein Rab-7a
T5 construct: Proteins enriched by c-ponatinib from U2OS cell lysate; endogenous in cells; host or cells: U2OS cell lysate
T5 sequence (P51149 whole entry): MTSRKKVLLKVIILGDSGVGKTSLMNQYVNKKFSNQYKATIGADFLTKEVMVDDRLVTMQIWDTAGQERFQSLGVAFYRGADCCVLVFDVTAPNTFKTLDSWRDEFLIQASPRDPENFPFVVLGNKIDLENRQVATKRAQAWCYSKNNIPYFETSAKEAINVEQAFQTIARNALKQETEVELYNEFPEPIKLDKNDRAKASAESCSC
Outline: as §1

[6] = target: T6, proteins of U2OS cell lysate (Homo sapiens, UniProt Q13813); conditions: SPTAN1, Spectrin alpha chain, non-erythrocytic 1
T6 construct: Proteins enriched by c-ponatinib from U2OS cell lysate; endogenous in cells; host or cells: U2OS cell lysate
Outline: as §1

[7] = target: T7, proteins of U2OS cell lysate (Homo sapiens, UniProt Q00610); conditions: CLTC, Clathrin heavy chain 1
T7 construct: Proteins enriched by c-ponatinib from U2OS cell lysate; endogenous in cells; host or cells: U2OS cell lysate
T7 sequence (Q00610 whole entry): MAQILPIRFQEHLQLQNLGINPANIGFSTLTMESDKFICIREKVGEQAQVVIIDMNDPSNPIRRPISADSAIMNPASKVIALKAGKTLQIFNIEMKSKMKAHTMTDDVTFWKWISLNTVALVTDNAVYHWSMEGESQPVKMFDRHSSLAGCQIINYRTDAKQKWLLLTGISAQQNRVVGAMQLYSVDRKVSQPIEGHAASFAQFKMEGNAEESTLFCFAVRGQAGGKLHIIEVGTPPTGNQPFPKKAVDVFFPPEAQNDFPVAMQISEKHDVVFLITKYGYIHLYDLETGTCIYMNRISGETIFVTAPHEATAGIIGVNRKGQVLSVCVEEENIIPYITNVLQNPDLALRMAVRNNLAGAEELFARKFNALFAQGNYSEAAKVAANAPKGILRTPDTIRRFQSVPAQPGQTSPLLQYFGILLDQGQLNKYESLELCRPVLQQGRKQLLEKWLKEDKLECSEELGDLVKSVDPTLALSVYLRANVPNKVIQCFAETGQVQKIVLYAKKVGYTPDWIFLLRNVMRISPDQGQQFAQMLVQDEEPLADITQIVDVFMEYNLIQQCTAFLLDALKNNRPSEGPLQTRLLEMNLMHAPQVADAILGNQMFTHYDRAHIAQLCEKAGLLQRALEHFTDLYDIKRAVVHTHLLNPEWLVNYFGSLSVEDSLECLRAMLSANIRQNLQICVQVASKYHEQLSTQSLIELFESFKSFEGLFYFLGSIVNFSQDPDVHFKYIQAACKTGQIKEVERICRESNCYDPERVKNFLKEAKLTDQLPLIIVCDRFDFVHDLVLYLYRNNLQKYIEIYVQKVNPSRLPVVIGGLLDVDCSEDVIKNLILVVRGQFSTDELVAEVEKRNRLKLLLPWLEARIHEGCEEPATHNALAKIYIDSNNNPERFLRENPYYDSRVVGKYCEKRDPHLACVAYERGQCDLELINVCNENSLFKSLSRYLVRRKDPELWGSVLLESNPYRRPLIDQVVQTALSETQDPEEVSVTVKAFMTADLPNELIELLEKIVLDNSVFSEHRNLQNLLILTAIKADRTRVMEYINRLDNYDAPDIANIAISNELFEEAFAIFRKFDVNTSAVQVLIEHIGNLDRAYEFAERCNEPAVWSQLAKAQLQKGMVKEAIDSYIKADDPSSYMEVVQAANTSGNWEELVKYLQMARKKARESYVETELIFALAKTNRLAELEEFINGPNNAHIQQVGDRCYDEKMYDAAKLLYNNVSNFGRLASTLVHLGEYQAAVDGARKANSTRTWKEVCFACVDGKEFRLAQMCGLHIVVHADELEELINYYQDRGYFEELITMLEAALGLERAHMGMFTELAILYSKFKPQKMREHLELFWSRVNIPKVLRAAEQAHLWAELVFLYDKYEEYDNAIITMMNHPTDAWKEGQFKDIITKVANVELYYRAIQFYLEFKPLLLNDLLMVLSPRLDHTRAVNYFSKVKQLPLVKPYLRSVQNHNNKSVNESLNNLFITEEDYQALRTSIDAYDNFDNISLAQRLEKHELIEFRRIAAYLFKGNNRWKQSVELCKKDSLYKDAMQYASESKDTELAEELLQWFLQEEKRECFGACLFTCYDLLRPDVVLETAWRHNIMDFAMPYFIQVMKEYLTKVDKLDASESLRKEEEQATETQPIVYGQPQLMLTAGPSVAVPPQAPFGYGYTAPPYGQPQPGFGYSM
Outline: as §1

[8] = target: T8, proteins of U2OS cell lysate (Homo sapiens, UniProt Q92616); conditions: GCN1L1, Translational activator GCN1
T8 construct: Proteins enriched by c-ponatinib from U2OS cell lysate; endogenous in cells; host or cells: U2OS cell lysate
Outline: as §1

[9] = target: T9, proteins of U2OS cell lysate (Homo sapiens, UniProt P20700); conditions: LMNB1, Lamin-B1
T9 construct: Proteins enriched by c-ponatinib from U2OS cell lysate; endogenous in cells; host or cells: U2OS cell lysate
T9 sequence (P20700 whole entry): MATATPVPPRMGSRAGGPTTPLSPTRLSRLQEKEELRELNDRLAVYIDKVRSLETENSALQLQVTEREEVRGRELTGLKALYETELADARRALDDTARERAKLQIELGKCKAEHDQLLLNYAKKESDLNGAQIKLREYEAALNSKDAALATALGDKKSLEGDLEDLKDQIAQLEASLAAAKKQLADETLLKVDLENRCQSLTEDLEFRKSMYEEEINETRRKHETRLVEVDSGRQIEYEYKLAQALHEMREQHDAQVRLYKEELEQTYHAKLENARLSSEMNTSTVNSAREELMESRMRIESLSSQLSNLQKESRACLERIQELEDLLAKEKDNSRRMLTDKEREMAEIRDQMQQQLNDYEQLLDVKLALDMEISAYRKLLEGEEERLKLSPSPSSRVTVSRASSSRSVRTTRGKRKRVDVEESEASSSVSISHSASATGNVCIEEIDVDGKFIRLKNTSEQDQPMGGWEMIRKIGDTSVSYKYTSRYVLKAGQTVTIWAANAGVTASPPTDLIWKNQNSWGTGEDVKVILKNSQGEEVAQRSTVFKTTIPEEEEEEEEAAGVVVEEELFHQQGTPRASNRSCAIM
Outline: as §1

[10] = target: T10, proteins of U2OS cell lysate (Homo sapiens, UniProt P62906); conditions: RPL10A, 60S ribosomal protein L10a
T10 construct: Proteins enriched by c-ponatinib from U2OS cell lysate; endogenous in cells; host or cells: U2OS cell lysate
Outline: as §1

[11] = target: T11, proteins of U2OS cell lysate (Homo sapiens, UniProt Q16531); conditions: DDB1, DNA damage-binding protein 1
T11 construct: Proteins enriched by c-ponatinib from U2OS cell lysate; endogenous in cells; host or cells: U2OS cell lysate
T11 sequence (Q16531 whole entry): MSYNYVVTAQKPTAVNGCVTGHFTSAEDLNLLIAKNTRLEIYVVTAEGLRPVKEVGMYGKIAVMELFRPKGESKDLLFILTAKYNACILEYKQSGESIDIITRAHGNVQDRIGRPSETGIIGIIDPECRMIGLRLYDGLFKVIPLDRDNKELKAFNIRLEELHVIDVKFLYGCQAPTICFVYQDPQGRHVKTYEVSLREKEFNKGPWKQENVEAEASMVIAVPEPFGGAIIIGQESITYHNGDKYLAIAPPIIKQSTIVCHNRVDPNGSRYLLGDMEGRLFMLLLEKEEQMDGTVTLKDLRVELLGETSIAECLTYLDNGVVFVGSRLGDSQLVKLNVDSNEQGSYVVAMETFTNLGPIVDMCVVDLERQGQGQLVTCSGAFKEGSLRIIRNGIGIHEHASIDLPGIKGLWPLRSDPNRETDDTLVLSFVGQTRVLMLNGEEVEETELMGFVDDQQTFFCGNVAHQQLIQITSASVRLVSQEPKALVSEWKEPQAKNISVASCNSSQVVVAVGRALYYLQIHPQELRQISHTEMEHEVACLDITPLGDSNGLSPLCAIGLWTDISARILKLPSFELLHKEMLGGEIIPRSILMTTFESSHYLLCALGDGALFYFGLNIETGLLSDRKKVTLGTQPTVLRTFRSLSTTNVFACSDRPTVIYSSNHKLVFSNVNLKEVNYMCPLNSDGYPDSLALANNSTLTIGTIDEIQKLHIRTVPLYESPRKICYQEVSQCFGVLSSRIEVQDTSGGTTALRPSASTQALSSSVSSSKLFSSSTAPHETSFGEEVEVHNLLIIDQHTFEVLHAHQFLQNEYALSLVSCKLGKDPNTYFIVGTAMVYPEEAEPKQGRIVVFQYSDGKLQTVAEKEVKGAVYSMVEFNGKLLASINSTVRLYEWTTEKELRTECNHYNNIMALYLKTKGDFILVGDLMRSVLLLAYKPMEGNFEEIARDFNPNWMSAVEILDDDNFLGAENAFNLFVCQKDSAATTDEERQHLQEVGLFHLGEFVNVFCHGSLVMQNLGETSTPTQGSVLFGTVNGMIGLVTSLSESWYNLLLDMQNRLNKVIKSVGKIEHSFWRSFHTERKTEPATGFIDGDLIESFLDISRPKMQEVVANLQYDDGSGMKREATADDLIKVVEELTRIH
Outline: as §1

[12] = target: T12, proteins of U2OS cell lysate (Homo sapiens, UniProt P42684); conditions: ABL2, Abelson tyrosine-protein kinase 2
T12 construct: Proteins enriched by c-ponatinib from U2OS cell lysate; endogenous in cells; host or cells: U2OS cell lysate
Outline: as §1

[13] = target: T13, proteins of U2OS cell lysate (Homo sapiens, UniProt Q14315); conditions: FLNC, Filamin-C
T13 construct: Proteins enriched by c-ponatinib from U2OS cell lysate; endogenous in cells; host or cells: U2OS cell lysate
Outline: as §1

[14] = target: T14, proteins of U2OS cell lysate (Homo sapiens, UniProt P68371); conditions: TUBB4B;TUBB8, Tubulin beta-4B chain
T14 construct: Proteins enriched by c-ponatinib from U2OS cell lysate; endogenous in cells; host or cells: U2OS cell lysate
Outline: as §1

[15] = target: T15, proteins of U2OS cell lysate (Homo sapiens, UniProt Q9Y512); conditions: SAMM50, Sorting and assembly machinery component 50 homolog
T15 construct: Proteins enriched by c-ponatinib from U2OS cell lysate; endogenous in cells; host or cells: U2OS cell lysate
T15 sequence (Q9Y512 whole entry): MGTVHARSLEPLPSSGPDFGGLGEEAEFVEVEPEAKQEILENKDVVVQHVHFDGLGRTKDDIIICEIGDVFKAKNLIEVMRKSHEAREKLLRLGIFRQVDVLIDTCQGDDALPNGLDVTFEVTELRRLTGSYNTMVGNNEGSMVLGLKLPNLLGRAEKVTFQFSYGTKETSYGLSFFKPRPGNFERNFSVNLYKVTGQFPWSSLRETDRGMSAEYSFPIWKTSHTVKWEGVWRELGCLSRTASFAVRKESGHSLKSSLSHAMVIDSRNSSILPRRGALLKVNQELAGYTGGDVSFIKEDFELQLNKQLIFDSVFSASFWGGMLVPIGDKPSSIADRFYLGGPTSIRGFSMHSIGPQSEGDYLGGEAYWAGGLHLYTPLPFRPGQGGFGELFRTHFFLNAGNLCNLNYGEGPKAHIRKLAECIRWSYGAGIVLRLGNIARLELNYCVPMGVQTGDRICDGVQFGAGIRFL
Outline: as §1

[16] = target: T16, proteins of U2OS cell lysate (Homo sapiens, UniProt P28066); conditions: PSMA5, Proteasome subunit alpha type-5
T16 construct: Proteins enriched by c-ponatinib from U2OS cell lysate; endogenous in cells; host or cells: U2OS cell lysate
T16 sequence (P28066 whole entry): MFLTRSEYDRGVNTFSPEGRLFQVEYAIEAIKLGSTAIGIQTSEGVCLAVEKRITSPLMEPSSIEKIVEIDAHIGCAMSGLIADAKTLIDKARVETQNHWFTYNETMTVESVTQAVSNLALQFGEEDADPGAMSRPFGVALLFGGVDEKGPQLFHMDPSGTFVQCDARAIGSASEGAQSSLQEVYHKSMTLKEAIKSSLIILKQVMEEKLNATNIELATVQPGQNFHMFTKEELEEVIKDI
Outline: as §1

[17] = target: T17, proteins of U2OS cell lysate (Homo sapiens, UniProt P49773); conditions: HINT1, Histidine triad nucleotide-binding protein 1
T17 construct: Proteins enriched by c-ponatinib from U2OS cell lysate; endogenous in cells; host or cells: U2OS cell lysate
T17 sequence (P49773 whole entry): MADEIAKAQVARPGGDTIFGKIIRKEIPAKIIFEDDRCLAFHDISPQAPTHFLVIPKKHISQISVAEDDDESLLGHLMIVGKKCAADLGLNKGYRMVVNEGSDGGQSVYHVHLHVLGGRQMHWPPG
Outline: as §1

[18] = target: T18, proteins of U2OS cell lysate (Homo sapiens, UniProt P55084); conditions: HADHB, Trifunctional enzyme subunit beta, mitochondrial
T18 construct: Proteins enriched by c-ponatinib from U2OS cell lysate; endogenous in cells; host or cells: U2OS cell lysate
T18 sequence (P55084 34-474): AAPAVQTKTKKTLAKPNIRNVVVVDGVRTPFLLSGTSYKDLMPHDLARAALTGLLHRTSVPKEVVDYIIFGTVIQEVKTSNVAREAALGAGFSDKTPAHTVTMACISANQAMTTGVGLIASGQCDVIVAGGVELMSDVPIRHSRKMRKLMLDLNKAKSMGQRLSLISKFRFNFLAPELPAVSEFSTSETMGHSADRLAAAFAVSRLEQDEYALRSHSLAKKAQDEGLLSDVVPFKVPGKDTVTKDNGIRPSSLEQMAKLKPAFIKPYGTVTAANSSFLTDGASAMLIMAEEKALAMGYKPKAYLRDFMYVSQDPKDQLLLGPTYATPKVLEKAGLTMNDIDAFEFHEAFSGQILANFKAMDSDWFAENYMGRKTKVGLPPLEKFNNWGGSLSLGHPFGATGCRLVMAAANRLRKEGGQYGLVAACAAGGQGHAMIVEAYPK
Outline: as §1

[19] = target: T19, proteins of U2OS cell lysate (Homo sapiens, UniProt Q13011); conditions: ECH1, Delta(3,5)-Delta(2,4)-dienoyl-CoA isomerase, mitochondrial
T19 construct: Proteins enriched by c-ponatinib from U2OS cell lysate; endogenous in cells; host or cells: U2OS cell lysate
Outline: as §1

T1 sequence (P62316 whole entry): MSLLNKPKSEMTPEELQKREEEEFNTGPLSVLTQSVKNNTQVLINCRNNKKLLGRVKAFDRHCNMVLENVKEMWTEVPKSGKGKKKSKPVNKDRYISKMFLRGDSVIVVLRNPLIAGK

SMILES | Average LFQ intensity [1] | Average LFQ PON_WT [2] | Average LFQ PON_WT [3] | Average LFQ PON_WT [4] | Average LFQ PON_WT [5] | Average LFQ PON_WT [6] | Average LFQ PON_WT [7] | Average LFQ PON_WT [8] | Average LFQ PON_WT [9] | Average LFQ PON_WT [10] | Average LFQ PON_WT [11] | Average LFQ PON_WT [12] | Average LFQ PON_WT [13] | Average LFQ PON_WT [14] | Average LFQ PON_WT [15] | Average LFQ PON_WT [16] | Average LFQ PON_WT [17] | Average LFQ PON_WT [18] | Average LFQ PON_WT [19]
Cc1ccc(C(=O)Nc2ccc(CN3CCN(CCCN)CC3)c(C(F)(F)F)c2)cc1C#Cc1cnc2cccnn12 [c-ponatinib, reference compound] | 22.0908 |  |  |  |  |  |  |  |  |  |  |  |  |  |  |  |  |  | 
Cc1ccc(C(=O)Nc2ccc(CN3CCN(C)CC3)c(C(F)(F)F)c2)cc1C#Cc1cnc2cccnn12 [PON] |  | 20.3086 | 20.3097 | 26.8473 | 20.9612 | 24.813 | 26.5716 | 23.5357 | 25.3205 | 19.7018 | 20.7257 | 26.1742 | 26.6007 | 26.1041 | 20.9007 | 20.0873 | 21.3958 | 23.6834 | 25.3624
